pIC50: −log10 of the molar value.
How the values were obtained:
cancer cell lines = test: In vitro colorimetric cell death assay (MTT), overall statement; format: cell-based
Description: (§1) It's an in vitro colorimetric assay for assessing cell viability where the cells are grown in Two-dimensional surface.
(§2) An exemplary procedure for the assay follows. Cancer cells and normal cells were plated in a 96 well plate as per predetermined plating efficiency. The plate was incubated for 24 hours in a 5% CO2 atmosphere at 37 degrees Celsius, a range of concentrations of the compounds I-1, I-2 and I-3 as well as cisplatin (known chemotherapeutic agents) were added to the separate wells, the plate was incubated further for 48 hours in a 5% CO2 atmosphere, the plate was centrifuged twice at 3000 rpm for 3 minutes, the supernatant fluid was discarded, 100 uL of 0.5 mg/mL MTT solution was added and the plate was incubated for 4 hours in a 5% CO2 atmosphere at 37 degrees Celsius. The plate was then centrifuged twice at 3000 rpm for 3 minutes, supernatant, was aspirated very carefully, 200 uL DMSO was added to each well to solubilize MTT crystals and mixed well by shaking the plate, the plate was incubated for 10 minutes in a 5% CO2 atmosphere at 37 degrees Celsius, the plate placed on the shaker of an ELISA plate reader and the absorbance at 570 nm was measured, then the percentage of viable cells remaining was calculated by first subtracting the background absorbance then comparing to the absorbance of a non-drug-treated cell sample, and the results were plotted on a graph to determine the IC50 for the compounds and cisplatin.

[1] = test system: breast cancer cells MCF-7; test: In vitro 3D primary sphere forming stem cell assay; format: cell-based
Description: (§3) This assay measures the ability of cancer stem cells to form spheres in a serum free media where the spheres are in a suspended form. Through this assay we evaluated the potency of the compounds of the invention to kill cancer stem cells in comparison with the known chemotherapeutic agent Cisplatin.
(§4) An exemplary procedure for the assay follows. Cells were grown in three dimensions on a plastic substrate, harvested in suspension in serum-free media, then the cells in the sample were trypsinized and a single cell suspension was formed by passing through a cell strainer. The cells were diluted according to the predetermined plating efficiency for the cell line being studied by suspending the cells in stem cell culture medium. 100 uL of this suspension was added into each well of a 96 well suspension plate, and the plate was incubated at 37 degrees Celsius in 5% CO2 atmosphere for 24 hours, then 2 uL of appropriate concentrations of the compounds of the invention and cisplatin were added into each respective well along with 100 uL of stem cell culture medium, and the plates were incubated at 37 degrees Celsius under 5% CO2 atmosphere for 72 hours. 2.5 uL of the compounds of the invention and cisplatin were added to each respective well along with 50 uL of stem cell culture medium and then the plates were incubated at 37 degrees Celsius under 5% CO2 atmosphere for 72 hours. 3 uL of appropriate concentrations of the compounds of the invention and cisplatin were added to each respective well along with 50 uL of stem cell culture medium and then the plates were incubated at 37 degrees Celsius under 5% CO2 atmosphere for 72 hours, then the spheres formed were observed under a microscope then counted and scored by size.
(§5) Results of the in vitro 3D sphere forming stem cell assay are set forth in a tabular manner. The number in each box is the total number of spheres formed in the presence of either cisplatin or compound I-2 or compound I-3 at each drug concentration. GC refers to a growth control performed in the absence of drug or solvent (DMSO). GCD refers to a growth control performed in the absence of drug, but in the presence of DMSO.

[2] = test system: breast cancer cells MDA MB 231; test: In vitro 3D primary sphere forming stem cell assay; format: cell-based
Description: as §3, §4, §5

PC3 [3] = test: In vitro colorimetric cell death assay (MTT); format: cell-based; conditions: Homo sapiens, PC-3, 48 hours
Description: as §1, §2

DU145 [4] = test: In vitro colorimetric cell death assay (MTT); format: cell-based; conditions: Homo sapiens
Description: as §1, §2

LNCaP = test: In vitro colorimetric cell death assay (MTT); format: cell-based; conditions: Homo sapiens, 48 hours
Description: as §1, §2

T47D [5] = test: In vitro colorimetric cell death assay (MTT); format: cell-based; conditions: Homo sapiens, 48 hours
Description: as §1, §2

MDAMB231 [6] = test: In vitro colorimetric cell death assay (MTT); format: cell-based; conditions: Homo sapiens, MDA-MB-231, 48 hours
Description: as §1, §2

PC3 [7] = test: In vitro soft agar colony forming growth assay; format: cell-based; conditions: Homo sapiens, PC-3, 168 h, one week
Description: (§6) The Soft Agar Assay for Colony Formation is considered the most stringent assay for detecting malignant transformation of cells. In this assay the cells are cultured in medium with low percentage of agar.
(§7) An exemplary procedure for the assay follows.

DU145 [8] = test: In vitro soft agar colony forming growth assay; format: cell-based; conditions: Homo sapiens, DU-145, 168 h, one week
Description: as §6, §7

T47D [9] = test: In vitro soft agar colony forming growth assay; format: cell-based; conditions: Homo sapiens, 168 h, one week
Description: as §6, §7

MDAMB231 [10] = test: In vitro soft agar colony forming growth assay; format: cell-based; conditions: Homo sapiens, MDA-MB-231, 168 h
Description: as §6, §7

[11] = In vivo maximum tolerated dose assay for compound I-1; set-up: species or system nude mice
Description: In vivo maximum tolerated dose (MTD) toxicity assay was carried out to evaluate the highest dose of a pharmaceutical treatment that will produce the desired effect without unacceptable toxicity. The purpose of administering MTD is to determine whether long-term exposure to a compound might lead to unacceptable adverse health effects in a subject, when the level of exposure is not sufficient to cause premature mortality due to short-term toxic effects.
An exemplary procedure for the in vivo maximum tolerated dose toxicity assay follows. A statistically appropriate number of male and female nude mice were injected with a single dose of either 30 mg/kg, 10 mg/kg, 5 mg/kg, and 2.5 mg/kg of a compound I-1 interperitoneally (i.p.) on day zero. The number of mice surviving from each dose group after the first through fourth days was recorded, and the Maximum Tolerated Dose (“MTD”; e.g. the dose at which 100% of the animals survived after 4 days) was determined.

L 929 = test: In vitro colorimetric cell death assay (MTT); format: cell-based; conditions: Mus musculus, L929, 48 h
Description: as §1, §2

[12] = test system: MCF10A (normal breast cell line); test: In vitro colorimetric cell death assay (MTT); format: cell-based; conditions: 48 hours
Description: as §1, §2

L929 = test: In vitro soft agar colony forming growth assay; format: cell-based; conditions: Mus musculus, L929, 168 h
Description: as §6, §7

HeLa = test: In vitro soft agar colony forming growth assay; format: cell-based; conditions: Homo sapiens, 168 h
Description: as §6, §7

## COc1cc2c(OC3OCC(O)C(O)C3O)c3c(c(-c4ccc5c(c4)OCO5)c2cc1OC)C(=O)OC3 (stereo not drawn) [I-3, 9-(1,3-benzodioxol-5-yl)-4-[(3,4,5-trihydroxytetrahydro-2H-pyran-2-yl)oxy]naphtho-6,7-dimethoxynaphtho[2,3-c]furan-1(3H)-one]
Cancer cell lines
  anticancer activity in cancer cell lines as compared to cisplatin: high anticancer activity
[1]; MCF-7
  numbers of primary spheres formed, compared with cisplatin: significantly less
[1]; final conc. 0.125 μM
  # of 3D Primary Spheres Formed of Cells MCF-7 (±SD): 74(±10)
[1]; final conc. 1.25 μM
  # of 3D Primary Spheres Formed of Cells MCF-7 (±SD): 57(±5)
[1]; final conc. 12.5 μM
  # of 3D Primary Spheres Formed of Cells MCF-7 (±SD): 48(±10)
[1]; final conc. 125 μM
  # of 3D Primary Spheres Formed of Cells MCF-7 (±SD): 28(±6)
[1]; final conc. 1250 μM
  # of 3D Primary Spheres Formed of Cells MCF-7 (±SD): 0(±0)
[2]; MDA MB 231
  numbers of primary spheres formed, compared with cisplatin: significantly less
[2]; final conc. 0.125 μM
  # of 3D Primary Spheres Formed of Cells MDA MB231 (±SD): 54(±5)
[2]; final conc. 1.25 μM
  # of 3D Primary Spheres Formed of Cells MDA MB231 (±SD): 38(±5)
[2]; final conc. 12.5 μM
  # of 3D Primary Spheres Formed of Cells MDA MB231 (±SD): 31(±5)
[2]; final conc. 125 μM
  # of 3D Primary Spheres Formed of Cells MDA MB231 (±SD): 9(±2)
[2]; final conc. 1250 μM
  # of 3D Primary Spheres Formed of Cells MDA MB231 (±SD): 0(±0)
PC3 [3]
  pIC50: 4.87
DU145 [4]; DU-145, DU145, MTT, 48 hours, read-out: IC 50
  pIC50: 5.02
LNCaP
  pIC50: 5.50
T47D [5]
  pIC50: 4.68
MDAMB231 [6]
  pIC50: 5.00
PC3 [7]
  pIC50: 6.07
DU145 [8]
  pIC50: 6.18
T47D [9]
  pIC50: 6.15
MDAMB231 [10]; MDAMB231, soft agar, one week, read-out: IC 50
  pIC50: 6.26

## COc1cc2c(OC3OCC(OC)C(OC)C3OC(C)=O)c3c(c(-c4ccc5c(c4)OCO5)c2cc1OC)C(=O)OC3 (stereo not drawn) [I-1]
Cancer cell lines
  anticancer activity in cancer cell lines as compared to cisplatin: high anticancer activity
[11]; 2.5 mg/kg single dose i.p., day 0
  Number of mice surviving after injection: 6/6
[11]; 2.5 mg/kg single dose i.p., day 1
  Number of mice surviving after injection: 6/6
[11]; 2.5 mg/kg single dose i.p., day 2
  Number of mice surviving after injection: 6/6
[11]; 2.5 mg/kg single dose i.p., day 3
  Number of mice surviving after injection: 6/6
[11]; 2.5 mg/kg single dose i.p., day 4
  Number of mice surviving after injection: 6/6
[11]; 5 mg/kg single dose i.p., day 0
  Number of mice surviving after injection: 6/6
[11]; 5 mg/kg single dose i.p., day 1
  Number of mice surviving after injection: 6/6
[11]; 5 mg/kg single dose i.p., day 2
  Number of mice surviving after injection: 6/6
[11]; 5 mg/kg single dose i.p., day 3
  Number of mice surviving after injection: 6/6
[11]; 5 mg/kg single dose i.p., day 4
  Number of mice surviving after injection: 6/6
[11]; 10 mg/kg single dose i.p., day 0
  Number of mice surviving after injection: 6/6
[11]; 10 mg/kg single dose i.p., day 1
  Number of mice surviving after injection: 4/6
[11]; 10 mg/kg single dose i.p., day 2
  Number of mice surviving after injection: 4/6
[11]; 10 mg/kg single dose i.p., day 3
  Number of mice surviving after injection: 4/6
[11]; 10 mg/kg single dose i.p., day 4
  Number of mice surviving after injection: 4/6
[11]; 30 mg/kg single dose i.p., day 0
  Number of mice surviving after injection: 4/6
[11]; 30 mg/kg single dose i.p., day 1
  Number of mice surviving after injection: 4/6
[11]; 30 mg/kg single dose i.p., day 2
  Number of mice surviving after injection: 0/6
[11]; 30 mg/kg single dose i.p., day 3
  Number of mice surviving after injection: 0/6
[11]; 30 mg/kg single dose i.p., day 4
  Number of mice surviving after injection: 0/6
[11]; single dose i.p., nude mice
  MTD: 5-10 mg/kg body weight
  dose that resulted in 100% survival of mice after 4 days: about 5 mg/kg
DU145 [4]; DU-145, 48 h
  pIC50: 4.43
L 929
  pIC50: 5.91
[12]
  IC50: No activity
L929
  pIC50: 5.44
HeLa
  pIC50: 5.29
MDAMB231 [10]
  pIC50: 5.23

— patent US20150328245A1, “Agents for Eliminating Tumour-Initiating Cells” (priority 2012, published 2015)
